Where two headings read alike, the source gives them in different places.

The values below come from paper PMC9325410 (Clinical Pharmacology and Therapeutics, 2022).

Series [1] deals with OATP1B1/1B3. Particulars: ref 17 (pitavastatin), 19 (CP-I); cited from earlier work.
For series [2], the system named is OATP1B1/1B3. To be noted: cited from earlier work.
The conditions of series [3]: after 20 mg and 75 mg CysA doses.
The nature of series [4]: Renal clearance. It counts as in vivo, human.
Series [5] has as its system OATP1B1/1B3. It counts as in vivo, human.
Setting [6] is: +CysA 20 mg, 1 h before probe cocktail.
Setting [7] is: otherwise (conditions other than rosuvastatin with 1-hour interval).

Regarding coproporphyrin I [CP-I], in series [1], the “hepatic extraction (PBPK model analysis)” value was 0.28.

In the case of `CC[C@@H]1NC(=O)[C@H]([C@H](O)[C@H](C)C/C=C/CO)N(C)C(=O)[C@H](C(C)C)N(C)C(=O)[C@H](CC(C)C)N(C)C(=O)[C@H](CC(C)C)N(C)C(=O)[C@@H](C)NC(=O)[C@H](C)NC(=O)[C@H](CC(C)C)N(C)C(=O)[C@H](C(C)C)NC(=O)[C@H](CC(C)C)N(C)C(=O)CN(C)C1=O` [AM1, Cyclosporin AM1], the “inhibition of OATP1B1/1B3 (in words)” value in series [2] was “inhibitor”. For the same compound, the “Plasma concentrations relative to CysA (times lower)” value in series [3] is recorded as 10 times.

Turning to `CC1=C(CCC(=O)O)c2cc3nc(cc4[nH]c(cc5[nH]c(cc1n2)c(C)c5CCC(=O)O)c(CCC(=O)O)c4C)C(CCC(=O)O)=C3C.Cl.Cl` [CP-III, Coproporphyrin III dihydrochloride], in series [4] (CysA 75 mg), the “reduction of CLR by CysA” value was found to be 24%.

As for `CC(C)c1nc(N(C)S(C)(=O)=O)nc(-c2ccc(F)cc2)c1/C=C/[C@@H](O)C[C@@H](O)CC(=O)O` [rosuvastatin], the “AUCR: AUC0-24 Geometric mean ratio +CysA/Control (90% CI)” value in series [5] (setting [6]) is 1.39; in series [5] (+CysA 75 mg (-1hr)), 2.16; in series [5] (+CysA 75 mg (-3hr)) it was 1.81. Besides, the “change of CLR by CysA (in words)” value in series [4] (CysA administered with a 1-hour interval) is recorded as “decreased”; in series [4] (setting [7]), “no significant change”.

On to `CCCCC(=O)N(Cc1ccc(-c2ccccc2-c2nnn[nH]2)cc1)[C@H](C(=O)O)C(C)C` [valsartan], for which the entries for the “AUCR: AUC0-24 Geometric mean ratio +CysA/Control (90% CI)” value in series [5] (setting [6]), in series [5] (+CysA 75 mg (-1hr)) and in series [5] (+CysA 75 mg (-3hr)) were 1.43, 1.77 and 1.85, respectively. Besides, in series [4] (setting [7]), the “change of CLR by CysA (in words)” value is given as “no significant change”.

In the case of `O=C(O)C[C@H](O)C[C@H](O)/C=C/c1c(C2CC2)nc2ccccc2c1-c1ccc(F)cc1` [pitavastatin], the “AUCR: AUC0-24 Geometric mean ratio +CysA/Control (90% CI)” value in series [5] (setting [6]) is 1.64; in series [5] (+CysA 75 mg (-1hr)), 3.46; in series [5] (+CysA 75 mg (-3hr)), 2.38. Further, in series [1], the “hepatic extraction (PBPK model analysis)” value was 0.43.
